For assay [1], the system named is marine bacteria (ten strains). The assay can be described thus: Bio-adhesion assay (crystal violet microplate). To be noted: for Effect on bacterial adhesion: polystyrene or tissue culture surface as named in the value; for Effect of drugs on adhesion of bacteria: 50 μl of 125 μg ml^−1 drug + 200 μl bacteria, 2 hours. In kind it is cell-based, marine bacteria isolated from Singapore fouling communities. How it is done:
The effect of pharmaceuticals on bacterial adhesion was analyzed using a modified microplate method adapted from Shea and Williamson (1990). This method consists of staining the attached bacteria with crystal violet, releasing the stain with sodium desoxycholate, and measuring the resulting absorbance of the crystal violet. The absorbance is proportional to the degree of bacterial adhesion to the surface.
Ten strains of bacteria (strain numbers 1, 4, 9, 14, 18, 20, 27, 28, 29 and 30) were chosen for this study. Flat bottom non-tissue culture treated polystyrene (hydrophobic, Falcon #351172) (referred to as polystyrene) and flat bottom tissue culture treated polystyrene (hydrophilic, Falcon #353072) microplates were used in the analyses. These two types of plates were chosen because they were sterile and offered two different kinds of surfaces to determine the adhesion preferences of the bacteria. Each test was done in duplicate. For the control and blank wells, 50 μl of sterile deionized water were added. For those wells that were to contain drugs, 50 μl of drugs at concentration of 125 μg ml^−1 were added. Then 200 μl of bacteria suspension in sterile seawater, whose absorbance had been adjusted to 0.6 at 600 nm using a spectrophotometer (Beckman), were added. Blanks contained 200 μl of sterile seawater.
The bacteria in suspension were allowed to attach for 2 hours at 28° C. Unattached cells were removed by pipetting out almost all trace of liquid and rinsed three times with 300 μl of sterile seawater each time. The attached cells were stained with 200 μl of crystal violet solution (0.1% w/v) in each well for 5 min. After removing the stain by pipetting, the wells were rinsed twice with 300 μl of sterile deionized water each time. Sodium desoxycholate (200 μl) solution (2% w/v) was then added to each well to extract the crystal violet from the stained cells for 10 min. The absorbance of the extracted solution was read at 590 nm using a microplate reader (Sunrise, Tecan, Switzerland).
The data were analyzed using T-test (Two-sample assuming unequal variances) to determine the significance of the absorbance values of each bacterial strain versus the blanks to determine whether there was adhesion, i.e. increase in absorbance. Each drug effect on adhesion was analyzed by comparing the absorbance of each bacterial strain minus the control blank versus bacteria in presence of drug minus the drug control. When the data is significant, there are bacterial cells attached to the surface in the control but in the presence of drugs, there is no attachment.

For a further assay, the system named is Bugula neritina larvae. Briefly: Bioassay against bryozoan larvae. The assay is classed as in vivo. The settings on record: crude rank, best (1) to worst (8). The method, then: Bugula neritina (Phylum Bryozoa, Class Gymnolaemata, Order Cheilostomatida) is a cosmopolitan species of bryozoan, commonly found in most marine fouling communities. The larvae are brooded in ovicells found on the stem of the colonies. When released, the larva will settle quickly on most surfaces, within a few minutes. At 24° C., the settled larvae forms the one-cell ancestrula, and after 48 hours, the lophophore has developed and extended for feeding.
Adult colonies of Bugula neritina were collected from fouling communities growing on the submerged pontoons on a floating fish farm located off Changi, Singapore. Adult animals were maintained in the open-circulation aquarium at St John's island marine laboratory, Singapore. The adults were kept in total darkness for 24 hours. On exposure to light, larvae were released after half an hour. […] Because the larvae will settle quickly, larvae were pipetted directly into test wells in 1 ml of seawater using a graduated glass pipette.
4 replicates were done for each treatment. After 24 hours, larvae were scored as settled, swimming or dead/deformed. The assay plates were usually kept for another 24 hours and checked again, to ascertain that the settled larvae had developed into viable colonies with lophophores. Two trials were repeated for each compound.
Bioassays were carried out using the method described above, in July 2003 during the peak spawning season for Bugula.

Assay [2] has as its system hard fouling (barnacles, serpulids, spirorbids). The assay can be described thus: Field testing of coated rods. To be noted: for Overall performance in field assay: crude rank, best (1) to worst (8); for Barnacles, difference in mean cover (%), drug vs VC50 / Serpulids, difference in mean cover (%), drug vs VC50 / Spirorbids, difference in mean cover (%), drug vs VC50 / Total hard fouling, difference in mean cover (%), drug vs VC50: drug + VC50 rods vs VC50 control; for Barnacles, difference in mean cover (%), drug vs control / Serpulids, difference in mean cover (%), drug vs control / Spirorbids, difference in mean cover (%), drug vs control / Total hard fouling, difference in mean cover (%), drug vs control: drug + VC50 rods vs uncoated blank control; for Effect of addition of drug on antifouling performance of VC50 coating (total hard fouling) / Reduction of total hard fouling cover compared to VC50 alone: drug at 25 ug per ml of VC50 coating; for Barnacles Mean cover (%) / Serpulids Mean cover (%) / Spirorbids Mean cover (%) / Total hard fouling Mean cover (%): rods coated with drug + VC50, field test; for Total hard fouling Mean cover (%): percentage cover within 6 mm×50 mm transect. Also on record: Total hard fouling, difference in mean cover (%), drug vs control / Barnacles, difference in mean cover (%), drug vs control: tested at 25 µg/ml of coating; Serpulids, difference in mean cover (%), drug vs control: tested at 25 µg/ml of coating mix. In kind it is in vivo. How it is done:
Fouling on rods occurs more rapidly than on flat panels, enabling rapid assessment of the performance of coatings.
6 mm diameter glass rods were cut to 150 mm length and prepared prior to coating by baking in a furnace at 150° C. for 24 hours and then cooling in a dessicator.
All pharmaceuticals were obtained in commercially available form. All tablets were reduced to fine powder with a mortar and pestle, and capsules were opened to extract the contents. The amount of drug powder required to attain the desired concentrations for all tests was calculated from product dosage information and then measured by weight on a high-resolution electronic balance. This was added to the coating and mixed thoroughly prior to application to obtain the concentration of 25 ug active ingredient per ml of coating mix.
The commercial antifouling product used to benchmark field experiments was VC Offshore with Teflon® manufactured by International Coatings.
For our experiments, a reduced copper coating (“VC50”) was prepared by mixing approximately 20 g of #YBA779 into 100 ml of #YBA707. The prepared coating was then allowed to stand so that bubbles from the mixing process dissipated. 15 ml centrifuge tubes were filled with 10 mls of prepared coating. Prepared glass rods were then immersed in the coating to a height of 100 mm and then suspended on a frame to air dry until coating cured.
Five replicate rods were tested for every experimental treatment, including controls. Two sets of controls were used, an uncoated blank control and a VC50 control without pharmaceutical additives. Rod were randomly arrayed on plastic vexar mesh attached to PVC frames and suspended at a depth of 10 cm from the water surface. […] Rods were examined visually weekly for the duration of testing, which typically lasts between 6 to 10 weeks. All fouling was scored as percentage cover of each category within a 6 mm×50 mm transect on each rod.

[3] abbreviates: strain 1 (Rhodovulum), hydrophobic surface (untreated polystyrene).
[4] abbreviates: coated rods, 25 ug active ingredient per ml of VC50 coating.

Entries after “also recorded” stand apart in the source; their conditions may differ. Counter-ions that a name gives are not always drawn.

`CCCCCCCCCC(=O)OC1(c2ccc(Cl)cc2)CCN(CCCC(=O)c2ccc(F)cc2)CC1` [HDL, haloperidol decanoate]: the “Effect on bacterial adhesion” value in assay [1] is “significant inhibition of adhesion in strain 1 and 20”. In assay [1] (setting [3]), the “Effect of drugs on adhesion of bacteria” value is listed as “*** (*** p < 0.005)”. The “Effect of drugs on adhesion of bacteria” value in assay [1] (strain 20, hydrophobic surface (untreated polystyrene)) is listed as “* (Significantly less adhesion observed: * p < 0.05)”. Besides, the “Prevention of settlement of Bugula larvae” value (“Prevention” for short) in the assay with Bugula neritina larvae came to 4. In addition, the “Total hard fouling, mean cover” value in assay [2] (setting [4]) stood at 30%. Also, in assay [2] (coated rods, in words), the Performance against barnacles result is on record as “did not significantly reduce barnacle cover compared to VC50 controls”, the “Performance against serpulid polychaetes” value is “completely excluded” and the “Performance against spirorbid polychaetes” value is listed as “exclude spirorbid settlement; also recorded: significantly improve the performance of VC50 against spirorbid polychaetes”. For the same molecule, in assay [2], the “Overall performance in field assay” value is 4; the “Barnacles, difference in mean cover (%), drug vs VC50” value is recorded as −6.7%; the “Serpulids, difference in mean cover (%), drug vs VC50” value was −1.67%; the “Spirorbids, difference in mean cover (%), drug vs VC50” value is −16.66%. Further, in assay [2], the “Total hard fouling, difference in mean cover (%), drug vs VC50” value is −25%; the “Barnacles, difference in mean cover (%), drug vs control” value is recorded as −69.7%; the “Serpulids, difference in mean cover (%), drug vs control” value is reported as −3.33%; the “Spirorbids, difference in mean cover (%), drug vs control” value is recorded as “+5%”. Further, in assay [2], the “Total hard fouling, difference in mean cover (%), drug vs control” value is on record as −68%; the “Barnacles Mean cover (%)” value is 23.3%; the “Serpulids Mean cover (%)” value is recorded as 0%; the “Spirorbids Mean cover (%)” value is listed as 6.67%. In addition, the “Total hard fouling Mean cover (%)” value in assay [2] is given as 30%. Besides, the “Effect of addition of drug on antifouling performance of VC50 coating (total hard fouling)” value (“Effect of addition of drug” for short) in assay [2] (in words) was “significantly less on VC50+HDL treated rods; also recorded: significantly improved the performance of VC50 coating”.
In the case of `CN(C)C(=O)C(CCN1CCC(O)(c2ccc(Cl)cc2)CC1)(c1ccccc1)c1ccccc1` [IMD, Loperamide hydrochloride], in assay [1], the “Effect on bacterial adhesion” value is “caused strain 1 to adhere to tissue culture surfaces”. Besides, in assay [1] (strain 1 (Rhodovulum), hydrophilic surface (tissue culture treated polystyrene)), the “Effect of drugs on adhesion of bacteria” value is “*incr adhesion”. Also, in assay [1] (setting [3]), the “Effect of drugs on adhesion of bacteria” value is recorded as “* (Significantly less adhesion observed: * p < 0.05)”. Further, the “Effect of drugs on adhesion of bacteria” value in assay [1] (strain 14 (Vibrio), hydrophilic surface (tissue culture treated polystyrene)) was “* (Significantly less adhesion observed: * p < 0.05)”. In addition, the “Prevention” value with Bugula neritina larvae is 7. The “Reduction of total hard fouling cover compared to blank controls” value in assay [2] (coated rods) came out at 97.3%. Further, in assay [2] (setting [4]), the “Barnacles, mean cover” value was found to be 0.67%; the “Serpulids, mean cover” value amounted to 0%; the “Spirorbids, mean cover” value was 0%; the “Total hard fouling, mean cover” value came out at 0.67%. The Performance against barnacles result in assay [2] (coated rods, in words) is given as “significantly less than on both controls”. Besides, in assay [2] (coated rods, in words, hydrochloride), the “Performance against spirorbid polychaetes” value is reported as “exclude spirorbid settlement; also recorded: no settlement by spirorbids”. In addition, in assay [2], the “Overall performance in field assay” value came to 1 and the “Reduction of total hard fouling cover compared to VC50 alone” value was found to be 54.3%. Further, in assay [2] (in words, hydrochloride), the “Effect of addition of drug” value is reported as “significantly increased the fouling resistance of the base coating; also recorded: significantly improved the performance of VC50 coating”. For the same molecule, in assay [2] (vs VC50 control), the “Barnacles, difference in mean cover vs VC50” value was −29.3%; the “Serpulids, difference in mean cover vs VC50” value was −1.67%; the “Spirorbids, difference in mean cover vs VC50” value is on record as −23.33%; the “Total hard fouling, difference in mean cover vs VC50” value is listed as −54.3%. Moreover, in assay [2] (vs uncoated blank control), the “Barnacles, difference in mean cover vs control” value was −92.3%; the “Serpulids, difference in mean cover vs control” value is reported as −3.33%; the “Spirorbids, difference in mean cover vs control” value is given as −1.67%; the “Total hard fouling, difference in mean cover vs control” value is given as −97.3%.
As for `CN1CCN(CCCN2c3ccccc3Sc3ccc(Cl)cc32)CC1` [PCZ, prochlorperazine maleate], the “Effect of drugs on adhesion of bacteria” value in assay [1] (setting [3]) was “* (Significantly less adhesion observed: * p < 0.05)”. Moreover, the “Effect of drugs on adhesion of bacteria” value in assay [1] (strain 4 (Bacillus), hydrophilic surface (tissue culture treated polystyrene)) is on record as “* (Significantly less adhesion observed: * p < 0.05)”. Moreover, in assay [1] (strain 4 (Bacillus), hydrophobic surface (untreated polystyrene)), the “Effect of drugs on adhesion of bacteria” value was “* (Significantly less adhesion observed: * p < 0.05)”. Also, the “Effect of drugs on adhesion of bacteria” value in assay [1] (strain 9 (Bacillus), hydrophobic surface (untreated polystyrene)) was “* (Significantly less adhesion observed: * p < 0.05)”. Also, in assay [1] (strain 30, hydrophobic surface (untreated polystyrene)), the “Effect of drugs on adhesion of bacteria” value is given as “* (Significantly less adhesion observed: * p < 0.05)”. Also, the “Prevention” value with Bugula neritina larvae worked out at 2. Besides, in assay [2], the “Overall performance in field assay” value was 7; the “Barnacles, difference in mean cover (%), drug vs VC50” value is given as −7.67%; the “Serpulids, difference in mean cover (%), drug vs VC50” value is −1.67%; the “Spirorbids, difference in mean cover (%), drug vs VC50” value is listed as −6.66%. Besides, in assay [2], the “Total hard fouling, difference in mean cover (%), drug vs VC50” value is recorded as −16%; the “Barnacles, difference in mean cover (%), drug vs control” value is −70.67%; the “Serpulids, difference in mean cover (%), drug vs control” value was −3.33%; the “Spirorbids, difference in mean cover (%), drug vs control” value is on record as “+15%”. In addition, in assay [2], the “Total hard fouling, difference in mean cover (%), drug vs control” value is on record as −58%; the “Reduction of total hard fouling cover compared to VC50 alone” value turned out to be 16%; the “Barnacles Mean cover (%)” value worked out at 22.33%; the “Serpulids Mean cover (%)” value came out at 0%. In assay [2], the “Spirorbids Mean cover (%)” value came to 16.67% and the “Total hard fouling Mean cover (%)” value worked out at 39%. In addition, the “Effect of addition of drug” value in assay [2] (in words) is reported as “this reduction was not statistically significant”.
